Measured values reported in patent US20040028714A1, “Composition having insect repellent characteristics” (priority 2000, published 2004).
Where “and” joins values, the source holds several entries; their conditions need not be identical. Equal entries are not always repeated.

Legend:
[1] = tested on: Casemaking Clothes Moths (Tinea pellionella); experiment: Adult clothes moth repellency on treated woolen cloth (Example 5); type: in vivo; conditions: fabric soaked in 20 g/L in ethanol, 2 days after moth introduction
Experimental: The effectiveness of compound 2 (example 1) to reduce the presence of cloth moths on woolen cloth was determined and was directly compared to the repellency of the well known moth repellents Citronellol and Farnesol.
The study was conducted in an air conditioned laboratory at a temperature of 22°±2° C. under a normal day/night cycle, using Casemaking Clothes Moths (Tinea pellionella) of mixed sex and age. The study is conducted over a 5 days period and the repellent effectiveness was assessed as follows:
Adults—2 days after insect introduction
A 10 cm×10 cm square of black woolen fabric free of bactericide) was soaked in a solution of the candidate repellent in ethanol at 20 g/L, squeezed and allowed to dry. The woollen square was placed in a small box (5 cm×10 cm×10 cm) which was open at one end to allow entry of adult clothes moth.
A similar square of fabric treated with ethanol (control) was placed in another box of the same size.
These two boxes were placed in an aquarium and 50 mixed sex adult moths were added. These were provided with food and water and left for 5 days.
At the end of 2 days the number of adult moths in each box was counted.
The above was repeated 3 times to provide 4 replicates.

[2] = tested on: German cockroaches (Blatella Germanica); experiment: Cockroach repellency screening on partially treated formica surface (Example 2); type: in vivo; conditions: cockroaches, 20 mg/m^2 on formica
Experimental: The effectiveness of compounds of formula I as an insect repellent was determined using German cockroaches exposed to a formica surface partially treated/partially untreated with a test compound of formula I. The study was conducted in an air conditioned laboratory at a temperature of 22°±2° C. under a normal day/night cycle, using German cockroaches (Blatella Germanica) of mixed sex and age. The study was conducted over a 3 day period and the repellent effectiveness assessed 1, 2 and 3 days after cockroach introduction. A rectangle of formica 40 cm×30 cm was treated at 20 mg/m^2 with a test compound of formula I. This was achieved by soaking a paper wipe (Rag on a Roll ca 20 cm×20 cm) in a solution of the test compound in ethanol, squeezing out the excess liquid and wiping over the surface to give the required coverage. This was checked by weighing the cloth after application. The surface was allowed to dry. A similar rectangle was wiped with ethanol alone (untreated surface). The treated formica rectangle was placed on the bench and a plastic container was placed on the rectangle. This had been treated with fluon to prevent cockroach escape. Two sheets of formica (10 cm×10 cm) were placed on the formica, one on the treated surface and one on the untreated surface. This acted as a cockroach harbourage. The formica sheet to be used in the treated section was treated at the same rate as the treated formica. The formica was placed on two 1 cm high bottle tops to allow cockroaches access under the formica. 20 German cockroaches were added (5 adults and 15 nymphs) to the centre of the formica. No food and water was supplied for these cockroaches. At 1, 2 and 3 days after cockroach introduction the number of cockroaches under each harbourage was counted. After each count the harbourage position was change to avoid the possibility of […] were replaced and new cockroaches were added to replace any dead cockroaches. The above was repeated 3 times to provide a total of 4 replicates.

[3] = share of moths found in the two boxes

## CCNC(=O)C1CC(C)CCC1C(C)C (centres unmarked) [Compound 2, N-ethyl-p-menthane-3-carboxamide]
[1]; [3]
  Moths Present, Treated Section, Total (%): (29.4%)
  Moths Present, Untreated Section, Total (%): (70.6%)
[1]; single replicates (n = 50)
  The Number of Moths Present, Treated Section: 6 and 7 and 11 and 8
  The Number of Moths Present, Untreated Section: 9 and 19 and 27 and 22
[1]; total of 4 replicates
  The Number of Moths Present, Treated Section, Total: 32
  The Number of Moths Present, Untreated Section, Total: 77
[2]; 1 day after treatment
  Percentage Dead: 0%
  Percentage Present, Treated Section: 17.5%
  Percentage Present, Untreated Section: 82.5%
[2]; 2 days after treatment
  Percentage Dead: 1.2%
  Percentage Present, Treated Section: 16.3%
  Percentage Present, Untreated Section: 82.5%
[2]; 3 days after treatment
  Percentage Dead: 2.5%
  Percentage Present, Treated Section: 13.8%
  Percentage Present, Untreated Section: 83.7%
[2]; average of days 1, 2 and 3
  Percentage Present, Treated Section, Average: 15.9%
  Percentage Present, Untreated Section, Average: 82.9%
